Data: patent US8158575B2, “Agent for the prevention and treatment of sexually transmitted diseases-I” (priority 2001, dated 2012)

How the values were obtained:
ME180 cells = experiment: XTT cell viability in the CD4-independent transmission assay
Procedure: ME180 cells, a CD4 negative, X4 positive cervical epithelial cell line is maintained in RPMI 1640 supplemented with 10% fetal bovine serum, glutamine and antibiotics. Twenty-four h prior to the assay ME180 cells are trypsonized, washed and seeded in 96-well flat bottom microtiter plates at a density of 2×10^3 cells per well. On the day of the assay, H9 cells chronically infected with the SK1 clinical isolate of HIV-1 (H9-SK1) are treated with freshly made mitomycin C (200 μg/ml) for 60 minutes at 37° C. This concentration of mitomycin C is sufficient to result in cell death, but allows virus transmission to occur. After mitomycin C treatment the H9-SK1 cells are washed three times with tissue culture medium. Test compounds are added to the ME180 monolayer followed by 2×10^4 H9-SK1 cells. The ME180 cells are co-cultured with H9-SK-1 cells and test material for 4 h, and the H9-SK1 cells are removed by washing the ME180 monolayer three times with PBS. At 24 and 48 h post assay initiation the wells are again washed three times with PBS to ensure removal of the H9-SK1 cells, and culture continued in test material free media. At six days post-co-cultivation, supernatants are collected and evaluated for p24 antigen expression by ELISA. Cell viability is assessed by XTT dye reduction. […] Testing in the presence of mucin is carried out by addition of 200 µg/ml of porcine mucin (Sigma Chemical Co., St Louis, Mo.) to the transmission reactions. Transmission intervals and washing without replacement of mucin or compound are carried as described above. All determinations are performed in triplicate with serial ½ Log10 dilution of the test materials.
TC50 values for the test materials are derived by measuring the reduction of the tetrazolium dye XTT (2,3-bis(2-methoxy-4-nitro-5-sulfophenyl)-5-[(phenylamino)carbonyl]-2H-tetrazolium hydroxide) in replicate microtiter plates containing cell and compound without virus. […] XTT solution is prepared daily as a stock of 1 mg/mL in PBS. Phenazine methosulfate (PMS) solution is prepared at 15 mg/mL in PBS and stored in the dark at −20° C. XTT/PMS stock is prepared immediately before use by diluting the PMS 1:100 into PBS and adding 40 µl per mL of XTT solution. Fifty microliters of XTT/PMS are added to each well of the plate and the plate incubated for 4 h at 37° C. The 4 h incubation has been empirically determined to be within the linear response range for […] dye reduction with the indicated numbers of cells for each assay. Adhesive plate sealers are used in place of the lids, the sealed plate is inverted several times to mix the soluble formazan product and the plate is read at 450 nm with a Molecular Devices Vmax 96 well plate format spectrophotometer.
Dextran sulfate (positive) and dextran (negative) are used as controls for the CD4-dependent and CD4-independent HIV transmission inhibition assays. […] Commercially available Penicillin (10,000 U/ml) Streptomycin (10.0 mg/ml) solution is used as a positive control for the Lactobacillus sensitivity assay.

[1] = biological target: T1, cell-to-cell fusion mediated by HIV-1 Env and CD4 (Human immunodeficiency virus type 1 group M subtype B, UniProt P04578); type: cell-based; conditions: TC50/IC50
T1 construct: expressed in transfected cells; host or cells: HeLa CD4 LTR beta-gal cells (CD4) co-cultured with HL2/3 cells (HIV-1 Env)
Procedure: The fusion assay assesses the ability of compounds to block cell-to-cell fusion mediated by HIV-1 Env and CD4 expressed on separate cells. This assay is sensitive to inhibitors of both the gp120/CD4 interaction and inhibitors of the X4 coreceptor. First, 5×10^3 HeLa CD4 LTR […]-gal cells are placed in microtiter wells and incubated overnight. The following day the media is removed and the HeLa CD4 LTR […]-gal cells are incubated for 1 h at 37° C. in fresh media with test compound. Following the incubation 5×10^3 HL2/3 cells are added and the incubation continued for 40 to 48 h. At 40 to 48 h […]-galactosidase enzyme expression is detected by chemiluminescence (Tropix Gal-screen™, Tropix, Bedford, Mass.). Compound toxicity is monitored on a sister plate using XTT dye reduction.

HIV-2 (ROD) = experiment: Anti-retroviral activity in HIV-infected MT-4 cells (MTT); type: cell-based; conditions: strain ROD (HIV-2)
Procedure: The human immunodeficiency virus strains used were HIV-1 (IIIB)^1 and HIV-2 (ROD)^2. Anti-retroviral activity and cytotoxicity measurements were carried out in parallel. […] After the MT-4 cells were allowed to proliferate for 5 days, the number of viable cells was quantified by a tetrazolium-based calorimetric 3-(4,5-dimethylthiazol-2-yl)-2,5-diphenyltetrazolium bromide (MTT) procedure in 96-well microtrays.^3
In all of these assays, viral input (viral multiplicity of infection, MOI) was 0.01, or 100 times the 50% cell culture infective dose (CCID50). […] Average EC50 and CC50 values for several separate experiments are presented as defined above. […] SI is the antiviral selectivity index CC50/EC50.

## BHAlyslys2lys4lys8lys16[NH—CO—CH2)O-3,6-Naphthyl-(SO3Na)2]32 [SPL-7013]
ME180 cells
  CD4-Independent Transmission Assay TC50: >100 µg/mL
[1]
  Fusion Assay TI: >141
HIV-2 (ROD)
  EC90: 4.86 µg/mL
HIV-2 (ROD); 5 days
  EC50: 3.26 µg/mL
